Key:
recombinant human 5-HT1A = target: T1, recombinant human 5-HT1A (Homo sapiens, UniProt P08908); assay: radioligand binding to serotonin receptor 5-HT1A ([3H] 8-OH-DPAT); details: for 5-HT1A % inhibition: 10 μM ligand; for inhibition at 1 µM: ligand concentration 1 μM
T1 construct: expressed in transfected cells; host or cells: CHO
T1 sequence (P08908 1-422): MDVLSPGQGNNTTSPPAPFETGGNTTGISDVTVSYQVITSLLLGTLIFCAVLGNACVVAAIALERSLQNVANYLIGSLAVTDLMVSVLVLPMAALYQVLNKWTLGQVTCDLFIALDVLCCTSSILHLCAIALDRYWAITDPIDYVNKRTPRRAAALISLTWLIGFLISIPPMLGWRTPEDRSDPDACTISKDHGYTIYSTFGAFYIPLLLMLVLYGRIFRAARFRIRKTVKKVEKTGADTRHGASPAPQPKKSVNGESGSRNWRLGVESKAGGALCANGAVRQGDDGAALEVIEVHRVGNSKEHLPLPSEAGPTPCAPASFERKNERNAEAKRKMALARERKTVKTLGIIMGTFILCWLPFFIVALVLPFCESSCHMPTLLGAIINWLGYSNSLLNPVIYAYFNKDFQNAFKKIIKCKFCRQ
Description: J Pharmacol Exp Ther. 306(1): 301-309, 2003]. […] Metergoline is used as positive control.

[1] = target: T2, recombinant human 5-HT6 receptor (Homo sapiens, UniProt P50406); assay: radioligand binding to serotonin receptor 5-HT6 ([3H] Lysergic acid diethylamide)
T2 construct: expressed in transfected cells; host or cells: HeLa
Description: Mol. Pharmacol. 43:320-327, 1993]. […] Methiothepin is used as positive control.

human 5-HT7 receptor = target: T3, human 5-HT7 receptor (Homo sapiens, UniProt P34969); assay: radioligand binding to serotonin receptor 5-HT7 ([3H] Lysergic acid diethylamide); details: 10 μM ligand
T3 construct: expressed in transfected cells; host or cells: CHO
Description: For this purpose sDNA of human 5-HT7 receptor is expressed in CHO cells as it was described in [Shen Y, Monsma F J Jr, Metcalf M A, Jose P A, Hamblin M W, and Sibley DR. […] J. Biol. Chem. 1993, 268, 18200-18204]. […] J. Pharmacol. Exp. Ther. 1994, 268:1403-1410]. […] Methiothepin is used as positive control.

imidazoline receptor I2 = assay: radioligand binding to imidazoline receptor I2 ([3H] Idazoxan); set-up: species or system rat; details: 10 μM ligand
Procedure: Determination of investigated compounds' binding to imidazoline I2 receptor is carried out according to the method described in [Brown C M, MacKinnon A C, McGrath J C, Spedding M and Kilpatrick A T, a2-Adrenoceptor subtypes and imidazoline-like binding in the rat brain. Br J. Pharmacol. 99:803-809, 1990]. […] Idazoxan is used as positive control.

[2] = target: T4, recombinant human 5-HT2C receptor (Homo sapiens, UniProt P28335); assay: radioligand binding to serotonin receptor 5-HT2C ([3H] Mesulergine); details: ligand concentration 1 μM
T4 construct: expressed in transfected cells; host or cells: CHO-K1
T4 sequence (P28335 33-458): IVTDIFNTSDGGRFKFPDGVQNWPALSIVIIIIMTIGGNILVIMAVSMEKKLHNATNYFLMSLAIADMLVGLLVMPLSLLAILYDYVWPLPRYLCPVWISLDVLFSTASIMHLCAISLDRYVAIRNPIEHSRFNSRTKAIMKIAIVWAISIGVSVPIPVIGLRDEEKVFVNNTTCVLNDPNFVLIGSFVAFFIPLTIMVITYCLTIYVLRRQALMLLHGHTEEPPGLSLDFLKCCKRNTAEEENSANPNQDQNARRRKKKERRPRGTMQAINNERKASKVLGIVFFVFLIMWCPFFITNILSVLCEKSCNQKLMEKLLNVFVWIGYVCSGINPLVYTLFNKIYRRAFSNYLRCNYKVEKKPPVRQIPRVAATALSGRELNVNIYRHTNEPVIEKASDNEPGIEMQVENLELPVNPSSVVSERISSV
Description: J. Neurochem. 69: 1449-1458, 1997]. […] SB242084 is used as positive control.

human α2A receptor = target: T5, human α2A receptor (Homo sapiens, UniProt P08913); assay: radioligand binding to adrenergic receptor α2A ([3H] MK-912); details: 10 μM ligand
T5 construct: expressed in transfected cells; host or cells: Sf9
T5 sequence (P08913 1-465): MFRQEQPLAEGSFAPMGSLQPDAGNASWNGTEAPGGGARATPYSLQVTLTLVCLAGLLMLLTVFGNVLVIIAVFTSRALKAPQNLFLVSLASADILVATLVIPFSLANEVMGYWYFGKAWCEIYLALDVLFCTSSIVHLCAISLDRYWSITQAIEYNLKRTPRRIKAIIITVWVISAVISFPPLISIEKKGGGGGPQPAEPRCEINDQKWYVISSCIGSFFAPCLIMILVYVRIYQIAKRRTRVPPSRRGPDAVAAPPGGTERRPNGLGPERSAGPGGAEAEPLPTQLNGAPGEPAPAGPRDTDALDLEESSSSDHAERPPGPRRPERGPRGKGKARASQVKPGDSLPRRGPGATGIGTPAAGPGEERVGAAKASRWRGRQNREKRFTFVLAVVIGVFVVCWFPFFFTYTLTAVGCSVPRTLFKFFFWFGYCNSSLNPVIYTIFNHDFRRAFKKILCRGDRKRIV
Description: J Pharmacol ExpTher. […] Yohimbine is used as positive control.

T3 sequence (P34969 whole entry): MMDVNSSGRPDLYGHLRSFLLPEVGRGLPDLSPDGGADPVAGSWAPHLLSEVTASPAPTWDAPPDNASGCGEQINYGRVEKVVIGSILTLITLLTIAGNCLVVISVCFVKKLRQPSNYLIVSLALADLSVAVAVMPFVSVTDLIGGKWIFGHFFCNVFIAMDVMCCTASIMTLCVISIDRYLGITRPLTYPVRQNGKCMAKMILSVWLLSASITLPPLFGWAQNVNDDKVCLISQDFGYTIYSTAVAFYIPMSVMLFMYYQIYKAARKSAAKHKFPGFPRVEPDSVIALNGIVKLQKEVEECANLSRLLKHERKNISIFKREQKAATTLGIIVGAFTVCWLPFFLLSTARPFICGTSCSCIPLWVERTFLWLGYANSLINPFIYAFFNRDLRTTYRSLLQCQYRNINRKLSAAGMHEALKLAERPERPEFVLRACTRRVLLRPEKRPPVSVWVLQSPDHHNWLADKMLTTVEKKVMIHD
T2 sequence (P50406 whole entry): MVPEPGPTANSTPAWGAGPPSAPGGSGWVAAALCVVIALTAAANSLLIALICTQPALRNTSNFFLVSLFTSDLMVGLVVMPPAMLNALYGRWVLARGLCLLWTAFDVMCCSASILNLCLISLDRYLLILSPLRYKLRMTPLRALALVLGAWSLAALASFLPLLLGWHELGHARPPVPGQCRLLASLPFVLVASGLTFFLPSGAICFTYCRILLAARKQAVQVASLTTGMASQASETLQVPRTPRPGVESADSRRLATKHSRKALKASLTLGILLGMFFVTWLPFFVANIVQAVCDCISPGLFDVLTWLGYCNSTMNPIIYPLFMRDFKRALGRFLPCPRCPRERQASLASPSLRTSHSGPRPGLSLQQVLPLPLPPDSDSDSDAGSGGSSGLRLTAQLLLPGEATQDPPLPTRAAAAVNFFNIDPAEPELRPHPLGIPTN

SMILES | 5-HT1A % inhibition (recombinant human 5-HT1A) [%] | 5-HT7 % inhibition (human 5-HT7 receptor) [%] | other results
Cc1ccc2c(c1)c1c(n2CCc2ccc(F)cc2)CCN(C)C1.Cl [1.1.2(1-16)•HCl] | 37 | 95 | 5-HT6 % inhibition ([1]; 10 μM ligand): 103%
Cc1ccc2c(c1)c1c(n2CCc2ccc(C(F)(F)F)cc2)CCN(C)C1.Cl [1.1.2(1-18)•HCl] | 53 | 103 | 
Cc1ccc2c(c1)c1c(n2CCc2ccc(C)nc2)CCCN(C)C1 [1.2.2(4-1)] |  |  | imidazoline I2 receptor % inhibition (imidazoline receptor I2): 80%
Cc1ccc(CCn2c3c(c4cc(F)ccc42)CN(C)CCC3)cn1 [1.2.2(4-2)•2HCl] |  |  | inhibition at 1 µM (recombinant human 5-HT1A): 31%
Cc1ccc2c(c1)c1c(n2CCc2ccncc2)CCCN(C)C1 [1.2.2(5-2)] |  |  | inhibition at 1 µM (recombinant human 5-HT1A): 13%; inhibition at 1 µM [2]: 92%; inhibition at 1 µM ([1]; ligand concentration 1 μM, read-out: 5-HT6 % inhibition): 84%; α-Adrenoceptor α2A, % inhibition (human α2A receptor): 74%
CN1CCc2c(c3cc(F)ccc3n2CCCc2ccccc2)C1.Cl [1.3.3(8)•HCl] | −4 | 83 | 
CN1CCc2c(c3cc(F)ccc3n2Cc2ccccc2)C1.Cl [1.9(3)•HCl] |  | 81 | 
Cc1ccc2c(c1)c1c(n2Cc2ccccc2)CCCN(C)C1.Cl [1.10(4)•HCl] | 19 | 75 | 
